Laboratory results reported in the supplement of paper PMC10307832.

How the values were obtained:
Test in all cases: relative viability (nuclei count vs DMSO), 5 days (fraction); higher = more cells survive
Docetaxel = compound: CC(=O)O[C@@]12CO[C@@H]1C[C@H](O)[C@@]1(C)C(=O)[C@H](O)C3=C(C)[C@@H](OC(=O)[C@H](O)[C@@H](NC(=O)OC(C)(C)C)c4ccccc4)C[C@@](O)([C@@H](OC(=O)c4ccccc4)[C@H]21)C3(C)C [Docetaxel]
In short: (§1)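 Viability was defined as treated-well nuclei divided by vehicle-well nuclei, with the median taken over replicate plates. Cells from lung cancer lines sat overnight at 37 °C in 1536-well plates, received five √10-spaced library-drug doses by pinning on vehicle-anchored plates, and grew 5 days without medium change before one-step fixation, permeabilisation and Hoechst staining, 4× imaging and MetaXpress nuclear counts. Only plates with control CV under 25% and at least one doubling were kept.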

Tivozanib = compound: COc1cc2nccc(Oc3ccc(NC(=O)Nc4cc(C)on4)c(Cl)c3)c2cc1OC [Tivozanib]
In short: as §1

[1] = compound: Cc1cnc(-c2cnc(NCCNc3ccc(C#N)cn3)nc2-c2ccc(Cl)cc2Cl)[nH]1
In short: as §1

JQ1 = compound: Cc1sc2c(c1C)C(c1ccc(Cl)cc1)=N[C@@H](CC(=O)OC(C)(C)C)c1nnc(C)n1-2 [JQ1]
In short: as §1

Cytarabine = compound: Nc1ccn([C@@H]2O[C@H](CO)[C@@H](O)[C@@H]2O)c(=O)n1 [Cytarabine]
In short: as §1

CPI-613 = compound: O=C(O)CCCCC(CCSCc1ccccc1)SCc1ccccc1 [CPI-613]
In short: as §1

Pimozide = compound: O=c1[nH]c2ccccc2n1C1CCN(CCCC(c2ccc(F)cc2)c2ccc(F)cc2)CC1 [Pimozide]
In short: as §1

## NCI-H2228
Docetaxel; 0.0002 µM
  relative viability: 0.749
Docetaxel; 0.000632 µM
  relative viability: 0.341
Docetaxel; 0.002 µM
  relative viability: 0.2
Docetaxel; 0.006325 µM
  relative viability: 0.199
Docetaxel; 0.02 µM
  relative viability: 0.144
Tivozanib; 0.005 µM
  relative viability: 0.897
Tivozanib; 0.01581 µM
  relative viability: 0.866
Tivozanib; 0.05 µM
  relative viability: 0.933
Tivozanib; 0.1581 µM
  relative viability: 0.965
Tivozanib; 0.5 µM
  relative viability: 0.989
[1]; 0.08 µM
  relative viability: 1.03
[1]; 0.253 µM
  relative viability: 0.887
[1]; 0.8 µM
  relative viability: 1.01
[1]; 2.53 µM
  relative viability: 0.864
JQ1; 0.04 µM
  relative viability: 0.927
JQ1; 0.1265 µM
  relative viability: 0.857
JQ1; 0.4 µM
  relative viability: 0.876
JQ1; 1.265 µM
  relative viability: 0.462
JQ1; 4 µM
  relative viability: 0.406
Cytarabine; 0.005 µM
  relative viability: 0.5
Cytarabine; 0.01581 µM
  relative viability: 0.432
Cytarabine; 0.05 µM
  relative viability: 0.428
Cytarabine; 0.1581 µM
  relative viability: 0.163
Cytarabine; 0.5 µM
  relative viability: 0.141
CPI-613; 5 µM
  relative viability: 0.915
CPI-613; 15.81 µM
  relative viability: 0.931
CPI-613; 50 µM
  relative viability: 0.893
CPI-613; 158.11 µM
  relative viability: 0.744
CPI-613; 500 µM
  relative viability: 0.0258
Pimozide; 0.08 µM
  relative viability: 1.07
Pimozide; 0.253 µM
  relative viability: 1.11
Pimozide; 0.8 µM
  relative viability: 0.868
Pimozide; 2.53 µM
  relative viability: 0.805
Pimozide; 8 µM
  relative viability: 0.543

## NCI-H2342
Docetaxel; 0.0002 µM
  relative viability: 1.04
Docetaxel; 0.000632 µM
  relative viability: 0.818
Docetaxel; 0.002 µM
  relative viability: 0.692
Docetaxel; 0.006325 µM
  relative viability: 0.619
Docetaxel; 0.02 µM
  relative viability: 0.484
Tivozanib; 0.005 µM
  relative viability: 0.88
Tivozanib; 0.01581 µM
  relative viability: 0.948
Tivozanib; 0.05 µM
  relative viability: 0.886
Tivozanib; 0.5 µM
  relative viability: 0.987
[1]; 0.08 µM
  relative viability: 1.13
[1]; 0.253 µM
  relative viability: 0.794
[1]; 0.8 µM
  relative viability: 0.952
[1]; 2.53 µM
  relative viability: 0.903
JQ1; 0.04 µM
  relative viability: 1.17
JQ1; 0.1265 µM
  relative viability: 0.775
JQ1; 0.4 µM
  relative viability: 0.993
JQ1; 1.265 µM
  relative viability: 0.943
JQ1; 4 µM
  relative viability: 0.756
Cytarabine; 0.005 µM
  relative viability: 0.909
Cytarabine; 0.01581 µM
  relative viability: 0.878
Cytarabine; 0.05 µM
  relative viability: 0.793
Cytarabine; 0.1581 µM
  relative viability: 0.744
Cytarabine; 0.5 µM
  relative viability: 0.608
CPI-613; 5 µM
  relative viability: 0.929
CPI-613; 15.81 µM
  relative viability: 1.01
CPI-613; 50 µM
  relative viability: 1.07
CPI-613; 158.11 µM
  relative viability: 0.97
CPI-613; 500 µM
  relative viability: 1.07
Pimozide; 0.08 µM
  relative viability: 1.01
Pimozide; 0.253 µM
  relative viability: 0.876
Pimozide; 0.8 µM
  relative viability: 0.912
Pimozide; 2.53 µM
  relative viability: 0.863
Pimozide; 8 µM
  relative viability: 0.995

## NCI-H2347
Docetaxel; 0.0002 µM
  relative viability: 0.973
Docetaxel; 0.000632 µM
  relative viability: 0.952
Docetaxel; 0.002 µM
  relative viability: 0.726
Docetaxel; 0.006325 µM
  relative viability: 0.52
Docetaxel; 0.02 µM
  relative viability: 0.459
Tivozanib; 0.005 µM
  relative viability: 0.95
Tivozanib; 0.01581 µM
  relative viability: 0.997
Tivozanib; 0.05 µM
  relative viability: 1.17
Tivozanib; 0.1581 µM
  relative viability: 0.939
Tivozanib; 0.5 µM
  relative viability: 1
[1]; 0.08 µM
  relative viability: 1.08
[1]; 0.253 µM
  relative viability: 0.894
[1]; 0.8 µM
  relative viability: 0.958
[1]; 2.53 µM
  relative viability: 1.09
JQ1; 0.04 µM
  relative viability: 0.992
JQ1; 0.1265 µM
  relative viability: 0.771
JQ1; 0.4 µM
  relative viability: 0.886
JQ1; 1.265 µM
  relative viability: 0.709
JQ1; 4 µM
  relative viability: 0.518
Cytarabine; 0.005 µM
  relative viability: 1.07
Cytarabine; 0.01581 µM
  relative viability: 0.914
Cytarabine; 0.05 µM
  relative viability: 0.825
Cytarabine; 0.1581 µM
  relative viability: 0.658
Cytarabine; 0.5 µM
  relative viability: 0.661
CPI-613; 5 µM
  relative viability: 1.03
CPI-613; 15.81 µM
  relative viability: 0.866
CPI-613; 50 µM
  relative viability: 0.96
CPI-613; 158.11 µM
  relative viability: 0.776
CPI-613; 500 µM
  relative viability: 0.844
Pimozide; 0.08 µM
  relative viability: 0.911
Pimozide; 0.253 µM
  relative viability: 0.957
Pimozide; 0.8 µM
  relative viability: 0.828
Pimozide; 2.53 µM
  relative viability: 0.962
Pimozide; 8 µM
  relative viability: 0.986

## NCI-H2405
Docetaxel; 0.0002 µM
  relative viability: 0.982
Docetaxel; 0.000632 µM
  relative viability: 0.879
Docetaxel; 0.002 µM
  relative viability: 0.633
Docetaxel; 0.006325 µM
  relative viability: 0.453
Docetaxel; 0.02 µM
  relative viability: 0.339
Tivozanib; 0.005 µM
  relative viability: 0.933
Tivozanib; 0.01581 µM
  relative viability: 1.02
Tivozanib; 0.05 µM
  relative viability: 1.04
Tivozanib; 0.1581 µM
  relative viability: 0.89
Tivozanib; 0.5 µM
  relative viability: 0.772
[1]; 0.08 µM
  relative viability: 1.01
[1]; 0.253 µM
  relative viability: 0.938
[1]; 0.8 µM
  relative viability: 0.948
[1]; 2.53 µM
  relative viability: 0.736
JQ1; 0.04 µM
  relative viability: 1.03
JQ1; 0.1265 µM
  relative viability: 0.598
JQ1; 0.4 µM
  relative viability: 0.921
JQ1; 1.265 µM
  relative viability: 0.711
JQ1; 4 µM
  relative viability: 0.499
Cytarabine; 0.005 µM
  relative viability: 0.927
Cytarabine; 0.01581 µM
  relative viability: 0.712
Cytarabine; 0.05 µM
  relative viability: 0.57
Cytarabine; 0.1581 µM
  relative viability: 0.512
Cytarabine; 0.5 µM
  relative viability: 0.384
CPI-613; 5 µM
  relative viability: 0.996
CPI-613; 15.81 µM
  relative viability: 0.909
CPI-613; 50 µM
  relative viability: 0.939
CPI-613; 158.11 µM
  relative viability: 0.931
CPI-613; 500 µM
  relative viability: 0.78
Pimozide; 0.08 µM
  relative viability: 0.964
Pimozide; 0.253 µM
  relative viability: 0.937
Pimozide; 0.8 µM
  relative viability: 1.03
Pimozide; 2.53 µM
  relative viability: 0.992
Pimozide; 8 µM
  relative viability: 0.96
